Results from patent US9403823B2, “Protein kinase inhibitors” (ORIBASE PHARMA, priority 2012, dated 2016).
Read-outs that look alike come from different tables or passages of the source.

Tests used:
[1] = tested on: HUVEC; assay: In vitro cell proliferation assay (MTT), HUVEC; format: cell-based; details: Homo sapiens, read-out: EC50, anti-proliferative activity
Procedure: (§1) 2) In Vitro Cell Proliferation Assays (Table 22 to Table 35)
(§2) Cancer cell lines (5×10^3 cells per well) or HUVEC (1×10^4 cells per well) or HRMEC (1×10^4 cells per well) were distributed in 96-well plates and incubating in duplicate with escalating concentrations (10 nM to 3 μM) of compounds for 72 hr. Cell proliferation was measured using MTT (3[4,5-dimethylthiazol-2-yl]-2,5-diphenyltetrazolium bromide).

[2] = biological target: T1, KDR (VEGFR2) (Homo sapiens, UniProt P35968); assay: In vitro kinase assay (Z'-LYTE), KDR (VEGFR2); format: biochemical; details: read-out: % of inhibition of the kinase compared to the control
T1 construct: purchased Invitrogen
T1 sequence (P35968 20-1356): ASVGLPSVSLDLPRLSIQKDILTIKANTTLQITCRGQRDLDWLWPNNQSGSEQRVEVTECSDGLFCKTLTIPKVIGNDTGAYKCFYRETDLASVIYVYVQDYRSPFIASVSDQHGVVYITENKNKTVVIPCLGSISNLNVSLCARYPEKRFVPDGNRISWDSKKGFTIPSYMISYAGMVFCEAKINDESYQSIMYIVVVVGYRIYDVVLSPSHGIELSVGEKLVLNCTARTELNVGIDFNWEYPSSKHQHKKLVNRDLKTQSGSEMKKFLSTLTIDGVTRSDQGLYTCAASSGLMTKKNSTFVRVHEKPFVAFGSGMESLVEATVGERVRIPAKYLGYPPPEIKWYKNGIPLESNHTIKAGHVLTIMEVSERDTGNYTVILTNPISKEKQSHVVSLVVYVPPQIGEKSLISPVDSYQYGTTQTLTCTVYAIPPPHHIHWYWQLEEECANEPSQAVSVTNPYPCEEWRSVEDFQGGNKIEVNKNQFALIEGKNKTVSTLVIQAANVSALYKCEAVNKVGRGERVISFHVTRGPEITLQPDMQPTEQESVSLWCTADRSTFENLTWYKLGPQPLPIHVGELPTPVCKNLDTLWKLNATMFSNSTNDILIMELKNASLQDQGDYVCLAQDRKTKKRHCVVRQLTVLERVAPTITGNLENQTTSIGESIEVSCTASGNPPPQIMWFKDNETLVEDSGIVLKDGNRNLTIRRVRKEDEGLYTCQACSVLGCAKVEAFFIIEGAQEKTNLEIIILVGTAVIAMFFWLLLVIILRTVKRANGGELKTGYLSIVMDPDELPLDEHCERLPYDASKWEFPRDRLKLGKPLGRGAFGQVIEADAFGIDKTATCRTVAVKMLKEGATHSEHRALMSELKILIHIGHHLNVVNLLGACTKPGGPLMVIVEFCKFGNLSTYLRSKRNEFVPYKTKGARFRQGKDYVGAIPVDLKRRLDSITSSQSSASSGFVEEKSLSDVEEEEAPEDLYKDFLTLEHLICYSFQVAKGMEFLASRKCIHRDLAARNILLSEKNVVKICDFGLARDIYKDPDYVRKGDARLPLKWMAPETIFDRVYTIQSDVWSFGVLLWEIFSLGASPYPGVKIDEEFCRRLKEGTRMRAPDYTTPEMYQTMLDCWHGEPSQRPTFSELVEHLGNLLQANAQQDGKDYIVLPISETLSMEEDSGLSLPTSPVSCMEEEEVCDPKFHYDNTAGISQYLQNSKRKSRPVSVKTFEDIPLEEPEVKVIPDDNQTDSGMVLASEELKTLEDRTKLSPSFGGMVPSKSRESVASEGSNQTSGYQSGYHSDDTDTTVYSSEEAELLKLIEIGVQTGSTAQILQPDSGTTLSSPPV
Procedure: (§3) 1) In Vitro Kinase Assays (Table 10 to Table 21)
(§4) The inhibitory activity of the compounds on several kinases including BRAF, EGFR (ErbB1), EGFR (ErbB1) T790M L858R, FGFR2, KDR (VEGFR2), PDGFRA (PDGFR alpha), SRC and other was evaluated by Invitrogen using the Z′-LYTE® technology. Briefly, the Z′-LYTE® biochemical assay employs a fluorescence-based, coupled-enzyme format and is based on the differential sensitivity of phosphorylated and non-phosphorylated peptides to proteolytic cleavage. The peptide substrate is labeled with two fluorophores—one at each end—that make up a FRET pair. A ratiometric method, which calculates the ratio (the Emission Ratio) of donor emission to acceptor emission after excitation of the donor fluorophore at 400 nm, is used to quantitate reaction progress.
(§5) The compounds are screened in 1% DMSO (final) in the well. For 10 point titrations, 3-fold serial dilutions are conducted from the starting concentration. All Peptide/Kinase Mixtures are diluted to a 2× working concentration in the appropriate Kinase Buffer. All ATP Solutions are diluted to a 4× working concentration in Kinase Buffer (50 mM HEPES pH 7.5, 0.01% BRIJ-35, 10 mM MgCl2, 1 mM EGTA). ATP Km apparent is previously determined using a Z′-LYTE® assay.
(§6) Each compound was incubated at a concentration of 100 nM (excepted to test the activity against ABL and ABL T315I for which the compounds were incubated at a concentration of 10 μM) and the tables 10 to 21 summarize the results obtained showing the inhibitory power of a compound.

[3] = biological target: T2, BRAF (Homo sapiens, UniProt P15056); assay: In vitro kinase assay (Z'-LYTE), BRAF; format: biochemical; details: read-out: % of inhibition of the kinase compared to the control
T2 construct: purchased Invitrogen
T2 sequence (P15056 whole entry): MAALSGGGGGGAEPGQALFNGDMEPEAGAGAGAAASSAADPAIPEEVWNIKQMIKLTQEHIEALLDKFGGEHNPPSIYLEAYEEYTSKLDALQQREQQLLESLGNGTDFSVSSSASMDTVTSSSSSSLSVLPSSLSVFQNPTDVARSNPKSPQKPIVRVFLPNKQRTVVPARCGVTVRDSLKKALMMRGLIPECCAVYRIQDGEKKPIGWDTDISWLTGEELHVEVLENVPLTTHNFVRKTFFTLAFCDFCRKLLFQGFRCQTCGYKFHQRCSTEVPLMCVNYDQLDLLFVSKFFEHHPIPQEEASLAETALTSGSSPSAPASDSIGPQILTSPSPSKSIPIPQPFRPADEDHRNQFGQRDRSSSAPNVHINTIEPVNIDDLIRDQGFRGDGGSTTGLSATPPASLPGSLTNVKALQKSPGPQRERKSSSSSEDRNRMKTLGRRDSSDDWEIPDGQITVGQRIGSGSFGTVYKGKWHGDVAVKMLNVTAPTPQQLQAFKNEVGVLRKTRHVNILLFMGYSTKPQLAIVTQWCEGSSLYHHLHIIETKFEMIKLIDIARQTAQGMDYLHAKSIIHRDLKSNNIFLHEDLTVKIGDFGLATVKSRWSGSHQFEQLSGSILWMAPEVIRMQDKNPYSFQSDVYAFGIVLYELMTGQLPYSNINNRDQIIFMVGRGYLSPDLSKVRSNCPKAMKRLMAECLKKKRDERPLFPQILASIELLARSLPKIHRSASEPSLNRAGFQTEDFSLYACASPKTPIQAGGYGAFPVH
Procedure: as §3, §4, §5, §6

[4] = biological target: T3, FGFR2 (Homo sapiens, UniProt P21802); assay: In vitro kinase assay (Z'-LYTE), FGFR2; format: biochemical; details: read-out: % of inhibition of the kinase compared to the control
T3 construct: purchased Invitrogen
T3 sequence (P21802 22-821): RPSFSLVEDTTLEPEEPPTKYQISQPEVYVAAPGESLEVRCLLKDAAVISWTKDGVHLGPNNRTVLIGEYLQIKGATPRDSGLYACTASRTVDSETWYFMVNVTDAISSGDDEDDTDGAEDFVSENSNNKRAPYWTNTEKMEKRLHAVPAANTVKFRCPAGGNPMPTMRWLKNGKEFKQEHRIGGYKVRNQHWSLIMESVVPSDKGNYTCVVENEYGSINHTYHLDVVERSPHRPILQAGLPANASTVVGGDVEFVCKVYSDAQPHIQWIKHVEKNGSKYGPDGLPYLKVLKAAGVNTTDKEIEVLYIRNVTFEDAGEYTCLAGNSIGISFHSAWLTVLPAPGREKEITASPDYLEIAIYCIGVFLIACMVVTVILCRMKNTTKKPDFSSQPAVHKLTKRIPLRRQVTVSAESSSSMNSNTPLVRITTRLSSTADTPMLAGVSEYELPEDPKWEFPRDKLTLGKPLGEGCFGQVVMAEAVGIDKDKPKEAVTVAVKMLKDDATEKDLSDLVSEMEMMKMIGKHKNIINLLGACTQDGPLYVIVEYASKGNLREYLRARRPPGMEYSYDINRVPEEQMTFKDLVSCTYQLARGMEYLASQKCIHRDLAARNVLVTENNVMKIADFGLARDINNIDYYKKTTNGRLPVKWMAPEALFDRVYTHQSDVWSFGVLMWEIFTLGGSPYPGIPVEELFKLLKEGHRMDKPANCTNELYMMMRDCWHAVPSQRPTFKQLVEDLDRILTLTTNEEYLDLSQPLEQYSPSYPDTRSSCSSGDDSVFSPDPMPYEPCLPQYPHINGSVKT
Procedure: as §3, §4, §5, §6

[5] = tested on: HepG2 cell line; assay: In vitro cell proliferation assay (MTT), HepG2; format: cell-based; details: Homo sapiens, read-out: EC50, anti-proliferative activity
Procedure: as §1, §2

[6] = biological target: T4, EGFR (ErbB1) (Homo sapiens, UniProt P00533); assay: In vitro kinase assay (Z'-LYTE), EGFR (ErbB1); format: biochemical; details: read-out: % of inhibition of the kinase compared to the control
T4 construct: purchased Invitrogen
T4 sequence (P00533 25-1210): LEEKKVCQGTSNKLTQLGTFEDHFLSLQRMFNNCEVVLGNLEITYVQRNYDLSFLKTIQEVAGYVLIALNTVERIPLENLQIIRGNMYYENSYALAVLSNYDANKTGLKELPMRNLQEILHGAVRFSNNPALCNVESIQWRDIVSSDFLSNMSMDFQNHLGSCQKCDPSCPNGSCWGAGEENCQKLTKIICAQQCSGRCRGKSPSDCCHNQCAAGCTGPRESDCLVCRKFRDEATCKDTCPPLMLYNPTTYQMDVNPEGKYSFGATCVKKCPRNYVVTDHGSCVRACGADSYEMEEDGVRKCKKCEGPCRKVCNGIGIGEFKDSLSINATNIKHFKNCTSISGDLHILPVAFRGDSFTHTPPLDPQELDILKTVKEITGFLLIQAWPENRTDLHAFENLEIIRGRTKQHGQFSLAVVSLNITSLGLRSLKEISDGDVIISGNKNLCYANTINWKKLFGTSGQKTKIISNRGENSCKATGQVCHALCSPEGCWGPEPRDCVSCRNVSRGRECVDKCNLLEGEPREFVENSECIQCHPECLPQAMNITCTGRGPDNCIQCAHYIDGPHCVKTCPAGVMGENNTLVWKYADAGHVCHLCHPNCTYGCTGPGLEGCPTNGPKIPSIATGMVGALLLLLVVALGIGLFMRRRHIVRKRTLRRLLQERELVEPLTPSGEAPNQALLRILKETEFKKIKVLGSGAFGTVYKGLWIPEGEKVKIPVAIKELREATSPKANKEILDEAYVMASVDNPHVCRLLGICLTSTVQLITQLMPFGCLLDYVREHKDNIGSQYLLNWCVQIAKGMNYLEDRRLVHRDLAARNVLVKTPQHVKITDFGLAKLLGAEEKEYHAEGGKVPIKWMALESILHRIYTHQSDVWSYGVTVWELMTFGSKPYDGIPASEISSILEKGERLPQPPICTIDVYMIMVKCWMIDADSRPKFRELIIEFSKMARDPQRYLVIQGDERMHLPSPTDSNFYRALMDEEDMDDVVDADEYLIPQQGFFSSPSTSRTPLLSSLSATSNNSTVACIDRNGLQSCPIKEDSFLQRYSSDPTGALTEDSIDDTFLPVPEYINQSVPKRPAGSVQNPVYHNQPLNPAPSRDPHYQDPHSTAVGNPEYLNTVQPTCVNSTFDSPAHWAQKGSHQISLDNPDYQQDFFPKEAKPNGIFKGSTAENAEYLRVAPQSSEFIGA
Procedure: as §3, §4, §5, §6

[7] = biological target: T5, PDGFRA (PDGFR alpha) (Homo sapiens, UniProt P16234); assay: In vitro kinase assay (Z'-LYTE), PDGFRA; format: biochemical; details: read-out: % of inhibition of the kinase compared to the control
T5 construct: purchased Invitrogen
Procedure: as §3, §4, §5, §6

[8] = biological target: T6, SRC (Homo sapiens, UniProt P12931); assay: In vitro kinase assay (Z'-LYTE), SRC; format: biochemical; details: read-out: % of inhibition of the kinase compared to the control
T6 construct: purchased Invitrogen
T6 sequence (P12931 whole entry): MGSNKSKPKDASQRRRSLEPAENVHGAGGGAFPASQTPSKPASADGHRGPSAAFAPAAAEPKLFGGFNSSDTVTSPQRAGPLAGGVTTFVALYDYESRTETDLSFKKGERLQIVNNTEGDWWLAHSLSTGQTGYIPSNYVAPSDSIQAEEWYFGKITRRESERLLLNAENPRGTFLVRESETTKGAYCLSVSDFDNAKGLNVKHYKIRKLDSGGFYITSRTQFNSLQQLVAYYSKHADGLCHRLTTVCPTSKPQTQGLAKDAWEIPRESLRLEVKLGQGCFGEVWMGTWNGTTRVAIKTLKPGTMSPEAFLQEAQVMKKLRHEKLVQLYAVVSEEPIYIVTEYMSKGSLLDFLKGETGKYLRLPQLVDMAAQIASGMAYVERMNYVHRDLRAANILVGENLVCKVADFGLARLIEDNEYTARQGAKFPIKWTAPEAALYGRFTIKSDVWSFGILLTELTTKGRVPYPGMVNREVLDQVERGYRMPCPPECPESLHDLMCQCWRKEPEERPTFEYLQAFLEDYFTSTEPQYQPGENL
Procedure: as §3, §4, §5, §6

Row | Compound | EC50 ([1]; 72 h) [nM] | inhibition at 0.1 µM [2] [%] | inhibition at 0.1 µM [3] [%] | inhibition at 0.1 µM [4] [%] | EC50 ([5]; HepG2, 72 h) [nM] | inhibition at 0.1 µM [6] [%] | EC50 ([1]; 72 hr, MTT) [nM] | EC50 ([5]; HepG2, 72 hr, MTT) [nM] | inhibition at 0.1 µM [7] [%] | inhibition at 0.1 µM [8] [%]
1 | CC(=O)c1cc2cc(NCc3cc(NC(=O)c4cccc(C(F)(F)F)c4)ccc3C)cnc2[nH]1 [OR0893, N-{3-[(2-Acetyl-1H-pyrrolo[2,3-b]pyridin-5-ylamino)-methyl]-4-methyl-phenyl}-3-trifluoromethyl-benzamide] | 100 to 1000 | ≥ 50 | ≥ 50 | < 50 | ≤ 100 | ≥ 50 |  |  |  | 
2 | CC(=O)c1cc2cc(NCc3ccc(F)c(NC(=O)c4cncc(C(F)(F)F)c4)c3)cnc2[nH]1 [OR0894, N-{5-[(2-Acetyl-1H-pyrrolo[2,3-b]pyridin-5-ylamino)-methyl]-2-fluoro-phenyl}-5-trifluoromethyl-nicotinamide] |  | ≥ 50 | ≥ 50 | ≥ 50 |  | < 50 | ≥ 1000 |  |  | 
3 | CC(=O)c1cc2cc(NCc3cccc(C(=O)Nc4cccnc4)c3)cnc2[nH]1 [OR0917, 3-[(2-Acetyl-1H-pyrrolo[2,3-b]pyridin-5-ylamino)-methyl]-N-pyridin-3-yl-benzamide] |  | ≥ 50 | < 50 | ≥ 50 |  | ≥ 50 | ≥ 1000 | ≥ 1000 |  | 
4 | CC(=O)c1cc2cc(NCc3cccc(NC(=O)c4ccc(CN5CC[C@H](N(C)C)C5)c(C(F)(F)F)c4)c3)cnc2[nH]1 [OR0927, N-{3-[(2-Acetyl-1H-pyrrolo[2,3-b]pyridin-5-ylamino)-methyl]-phenyl}-4-((S)-3-dimethylamino-pyrrolidin-1-ylmethyl)-3-trifluoromethyl-benzamide] | 100 to 1000 | ≥ 50 | < 50 | ≥ 50 | 100 to 1000 | ≥ 50 |  |  |  | 
5 | CC(=O)c1cc2cc(NCc3cc(NC(=O)c4cncc(C(F)(F)F)c4)ccc3F)cnc2[nH]1 [OR0970, N-{5-[(2-Acetyl-1H-pyrrolo[2,3-b]pyridin-5-ylamino)-methyl]-4-fluoro-phenyl}-5-trifluoromethyl-nicotinamide] |  | ≥ 50 | ≥ 50 | < 50 | 100 to 1000 | < 50 | ≥ 1000 |  |  | 
6 | CC(=O)c1cc2cc(NCc3cc(NC(=O)c4ccc(CN5CC[C@H](N(C)C)C5)c(C(F)(F)F)c4)ccc3F)cnc2[nH]1 [OR0971, N-{3-[(2-Acetyl-1H-pyrrolo[2,3-b]pyridin-5-ylamino)-methyl]-4-fluoro-phenyl}-4-((S)-3-dimethylamino-pyrrolidin-1-ylmethyl)-3-trifluoromethyl-benzamide] |  | ≥ 50 | < 50 | ≥ 50 | 100 to 1000 | ≥ 50 | ≥ 1000 |  |  | 
7 | CC(=O)c1cc2cc(NCc3cc(NC(=O)c4ccc(CN5CCC(N(C)C)C5)c(F)c4)ccc3C)cnc2[nH]1 (stereo not drawn) [OR0973, N-{3-[(2-Acetyl-1H-pyrrolo[2,3-b]pyridin-5-ylamino)-methyl]-4-methyl-phenyl}-4-(3-dimethylamino-pyrrolidin-1-ylmethyl)-3-fluoro-benzamide] |  | ≥ 50 | ≥ 50 | < 50 | 100 to 1000 | ≥ 50 | ≥ 1000 |  |  | 
8 | CC(=O)c1cc2cc(NC(=O)c3cccc(CNC(=O)c4ccc(CN5CCN(C)CC5)c(C(F)(F)F)c4)c3)cnc2[nH]1 [OR0984, N-[3-(2-Acetyl-1H-pyrrolo[2,3-b]pyridin-5-ylcarbamoyl)-benzyl]-4-(4-methyl-piperazin-1-ylmethyl)-3-trifluoromethyl-benzamide] |  | < 50 | < 50 | < 50 |  | < 50 |  | ≥ 1000 | < 50 | < 50
